Results taken from the NIST ThermoML archive (doi:10.1007/s10765-005-8096-3).

Experiment: refractive index (Na D-line) (dimensionless); xn = mol fraction of the nth substance listed
Settings: 101 kPa, Liquid, Standard Abbe refractometry

CCCCOC(C)=O [butyl ethanoate] + Cc1ccc(C)cc1
refractive index
Settings | 293.15 K | 298.15 K | 303.15 K | 308.15 K | 313.15 K
x1 = 0.0494 | 1.49045 | 1.48779 | 1.48504 | 1.48238 | 1.47977
x1 = 0.1014 | 1.48487 | 1.48216 | 1.4794 | 1.47685 | 1.47409
x1 = 0.1494 | 1.4798 | 1.4771 | 1.47436 | 1.47174 | 1.46903
x1 = 0.2012 | 1.47424 | 1.47153 | 1.46878 | 1.46623 | 1.46356
x1 = 0.248 | 1.46931 | 1.46663 | 1.46387 | 1.46134 | 1.45863
x1 = 0.3077 | 1.46309 | 1.46041 | 1.45768 | 1.45514 | 1.45247
x1 = 0.3519 | 1.45847 | 1.45583 | 1.45312 | 1.45058 | 1.44789
x1 = 0.404 | 1.45307 | 1.45044 | 1.44776 | 1.44522 | 1.44259
x1 = 0.4519 | 1.44815 | 1.44554 | 1.44286 | 1.44032 | 1.4377
x1 = 0.4999 | 1.44322 | 1.44061 | 1.43796 | 1.43542 | 1.43282
x1 = 0.5505 | 1.43808 | 1.4355 | 1.43288 | 1.43034 | 1.42775
x1 = 0.5991 | 1.43317 | 1.4306 | 1.42798 | 1.42546 | 1.42286
x1 = 0.6518 | 1.42787 | 1.42531 | 1.42272 | 1.42021 | 1.41762
x1 = 0.6993 | 1.42315 | 1.42063 | 1.41806 | 1.41551 | 1.41295
x1 = 0.749 | 1.41825 | 1.41572 | 1.41319 | 1.41066 | 1.40812
x1 = 0.799 | 1.41333 | 1.41087 | 1.40834 | 1.40581 | 1.40327
x1 = 0.8519 | 1.4083 | 1.40578 | 1.40327 | 1.40076 | 1.39826
x1 = 0.8979 | 1.40384 | 1.40137 | 1.39885 | 1.39641 | 1.3939
x1 = 0.9489 | 1.39894 | 1.39654 | 1.39405 | 1.39155 | 1.3891

CCCCOC(C)=O [butyl ethanoate] + Cc1ccccc1
refractive index
Settings | 293.15 K | 298.15 K | 303.15 K | 308.15 K | 313.15 K
x1 = 0.0499 | 1.49044 | 1.48757 | 1.48472 | 1.4818 | 1.47891
x1 = 0.0998 | 1.48428 | 1.48149 | 1.47861 | 1.47573 | 1.47285
x1 = 0.15 | 1.47815 | 1.47538 | 1.47251 | 1.46966 | 1.46684
x1 = 0.2001 | 1.47222 | 1.46948 | 1.46668 | 1.46382 | 1.46101
x1 = 0.2502 | 1.46644 | 1.46358 | 1.46079 | 1.45814 | 1.45535
x1 = 0.2985 | 1.461 | 1.45826 | 1.45547 | 1.45277 | 1.4501
x1 = 0.3447 | 1.4559 | 1.45318 | 1.45041 | 1.44769 | 1.44494
x1 = 0.4011 | 1.4498 | 1.44705 | 1.4443 | 1.44161 | 1.4389
x1 = 0.4468 | 1.44504 | 1.44235 | 1.4397 | 1.43691 | 1.43423
x1 = 0.4994 | 1.43964 | 1.43696 | 1.4343 | 1.43157 | 1.42895
x1 = 0.5524 | 1.4343 | 1.43166 | 1.42902 | 1.42632 | 1.42368
x1 = 0.5999 | 1.42964 | 1.42695 | 1.42432 | 1.42164 | 1.41904
x1 = 0.6517 | 1.42468 | 1.42207 | 1.41943 | 1.41676 | 1.41415
x1 = 0.7 | 1.42017 | 1.41756 | 1.41498 | 1.41233 | 1.40974
x1 = 0.7516 | 1.41545 | 1.41287 | 1.41026 | 1.40773 | 1.40511
x1 = 0.7972 | 1.41141 | 1.40888 | 1.40629 | 1.40371 | 1.4012
x1 = 0.8404 | 1.4076 | 1.40508 | 1.4025 | 1.39992 | 1.39741
x1 = 0.8971 | 1.40273 | 1.40025 | 1.39777 | 1.39518 | 1.39265
x1 = 0.9449 | 1.39881 | 1.3963 | 1.39384 | 1.39133 | 1.38884

CCCCc1ccccc1 [butylbenzene] + CCCCOC(C)=O
refractive index
Settings | 293.15 K | 298.15 K | 303.15 K | 308.15 K | 313.15 K
x2 = 0.049 | 1.48578 | 1.48339 | 1.48091 | 1.47847 | 1.47595
x2 = 0.1016 | 1.48141 | 1.47885 | 1.47649 | 1.47387 | 1.47154
x2 = 0.1545 | 1.47686 | 1.47443 | 1.47201 | 1.46946 | 1.46708
x2 = 0.1989 | 1.47295 | 1.47054 | 1.46814 | 1.46556 | 1.46318
x2 = 0.2515 | 1.46838 | 1.46596 | 1.46358 | 1.461 | 1.45858
x2 = 0.3023 | 1.46389 | 1.46143 | 1.45905 | 1.45651 | 1.45403
x2 = 0.3501 | 1.45956 | 1.45713 | 1.4547 | 1.45232 | 1.44977
x2 = 0.3997 | 1.45505 | 1.45258 | 1.45018 | 1.44769 | 1.44526
x2 = 0.45 | 1.45031 | 1.44787 | 1.44547 | 1.44298 | 1.44055
x2 = 0.4993 | 1.44563 | 1.44318 | 1.44078 | 1.43832 | 1.43589
x2 = 0.5496 | 1.44082 | 1.43837 | 1.43591 | 1.43351 | 1.43104
x2 = 0.6004 | 1.43586 | 1.43342 | 1.43102 | 1.42848 | 1.42602
x2 = 0.6499 | 1.43099 | 1.42852 | 1.42607 | 1.42354 | 1.42107
x2 = 0.6998 | 1.42593 | 1.42345 | 1.42099 | 1.41852 | 1.41609
x2 = 0.7517 | 1.4207 | 1.41819 | 1.41576 | 1.41331 | 1.41084
x2 = 0.801 | 1.41551 | 1.41312 | 1.4106 | 1.40817 | 1.40574
x2 = 0.8489 | 1.41049 | 1.40806 | 1.40567 | 1.40319 | 1.40078
x2 = 0.8999 | 1.40499 | 1.40257 | 1.40021 | 1.39782 | 1.39529
x2 = 0.9493 | 1.39969 | 1.39734 | 1.39484 | 1.39244 | 1.39

CC(C)c1ccccc1 [isopropylbenzene] + CCCCOC(C)=O
refractive index
Settings | 293.15 K | 298.15 K | 303.15 K | 308.15 K | 313.15 K
x2 = 0.0521 | 1.48648 | 1.48385 | 1.48124 | 1.47872 | 1.47599
x2 = 0.0998 | 1.48203 | 1.47941 | 1.47677 | 1.47424 | 1.47156
x2 = 0.151 | 1.47724 | 1.47459 | 1.47198 | 1.46948 | 1.4668
x2 = 0.2043 | 1.47219 | 1.46954 | 1.46694 | 1.46442 | 1.46178
x2 = 0.2496 | 1.4679 | 1.46525 | 1.46266 | 1.46014 | 1.45753
x2 = 0.3036 | 1.46273 | 1.46014 | 1.45758 | 1.45505 | 1.45243
x2 = 0.3578 | 1.45755 | 1.45496 | 1.45242 | 1.44988 | 1.44725
x2 = 0.4021 | 1.45329 | 1.45068 | 1.44815 | 1.44562 | 1.44301
x2 = 0.4514 | 1.4485 | 1.44593 | 1.44338 | 1.44086 | 1.43827
x2 = 0.4994 | 1.44384 | 1.44127 | 1.43873 | 1.43623 | 1.43363
x2 = 0.555 | 1.43843 | 1.43587 | 1.43334 | 1.43083 | 1.42824
x2 = 0.6017 | 1.43384 | 1.4313 | 1.42878 | 1.42629 | 1.42372
x2 = 0.65 | 1.42906 | 1.42655 | 1.42403 | 1.42154 | 1.41898
x2 = 0.6996 | 1.42417 | 1.42165 | 1.41914 | 1.41673 | 1.41413
x2 = 0.7493 | 1.41919 | 1.4167 | 1.41421 | 1.41175 | 1.40924
x2 = 0.8007 | 1.4141 | 1.41161 | 1.40915 | 1.40668 | 1.40412
x2 = 0.8497 | 1.4092 | 1.40674 | 1.40425 | 1.4018 | 1.39927
x2 = 0.8992 | 1.40425 | 1.4018 | 1.39931 | 1.39691 | 1.39437
x2 = 0.95 | 1.39913 | 1.39675 | 1.39426 | 1.39185 | 1.3894
